# Measurements published in PMC8625051, “Wound Healing Metabolites from Peters’ Elephant-Nose Fish Oil: An In Vivo Investigation Supported by In Vitro and In Silico Studies” (Marine Drugs, 2021).
# Assays:
# Format in all cases: biochemical
# COX-1 = biological target: T1, COX-1 (Ovis aries, UniProt P05979); experiment: In vitro COX-1 inhibitory assay (fluorometric screening kit, Biovision)
# T1 construct: purchased Biovision
# T1 sequence (P05979 25-600): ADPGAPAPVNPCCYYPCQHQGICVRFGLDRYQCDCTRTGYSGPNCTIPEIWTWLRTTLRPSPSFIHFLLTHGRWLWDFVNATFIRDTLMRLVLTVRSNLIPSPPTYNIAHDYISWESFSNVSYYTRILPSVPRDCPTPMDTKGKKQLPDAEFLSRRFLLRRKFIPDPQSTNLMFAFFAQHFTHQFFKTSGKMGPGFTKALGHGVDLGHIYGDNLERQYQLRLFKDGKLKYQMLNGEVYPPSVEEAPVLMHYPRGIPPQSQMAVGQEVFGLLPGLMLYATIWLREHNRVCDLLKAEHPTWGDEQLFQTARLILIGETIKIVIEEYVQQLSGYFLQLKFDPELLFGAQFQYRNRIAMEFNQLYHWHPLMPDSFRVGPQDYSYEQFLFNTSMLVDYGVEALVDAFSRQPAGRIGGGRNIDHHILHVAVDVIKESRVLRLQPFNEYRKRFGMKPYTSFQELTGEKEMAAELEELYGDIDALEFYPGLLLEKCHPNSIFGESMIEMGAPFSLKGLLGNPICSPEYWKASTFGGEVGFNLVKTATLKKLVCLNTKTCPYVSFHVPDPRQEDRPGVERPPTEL
# Protocol: (§1) The in vitro inhibitory assays of the isolated compounds against COX-1 and COX-2 were determined by using fluorometric-based screening kits (Biovision, Switzerland) according to the manufacturer’s protocol. These assays are based on the detection of the florescence produced by prostaglandin G2, i.e., the intermediate product produced by the COX-1 and -2 enzymes. The enzymes solutions were prepared by adding […] of dd. H2O to the lyophilized enzymes in the kit. The diluted COX cofactor was formulated by mixing the COX assay buffer (398 mL) and COX Cofactor (2 mL). 5 mL of arachidonic acid were added to 5 mL of NaOH and then diluted by 90 mL of double distilled H2O to produce dilute arachidonic acid/NaOH solution. Subsequently, all these prepared solutions were mixed to produce the reaction mixture ([…]). Different concentrations of the test compounds were added to the previous solution. The reaction mixtures were then incubated at 25 °C for 10 min. […] These assays of test compounds, blank, and reference inhibitors were carried out in triplicates. IC50 values were calculated by GraphPad software (version 7.0), where the percentage inhibitions were plotted versus the log concentrations. Dividing the IC50 calculated for […] by the IC50 calculated for […] was applied to determine the Selectivity index (SI).
# COX-2 = biological target: T2, COX-2 (Homo sapiens, UniProt P35354); experiment: In vitro COX-2 inhibitory assay (fluorometric screening kit, Biovision)
# T2 construct: purchased Biovision
# T2 sequence (P35354 18-604): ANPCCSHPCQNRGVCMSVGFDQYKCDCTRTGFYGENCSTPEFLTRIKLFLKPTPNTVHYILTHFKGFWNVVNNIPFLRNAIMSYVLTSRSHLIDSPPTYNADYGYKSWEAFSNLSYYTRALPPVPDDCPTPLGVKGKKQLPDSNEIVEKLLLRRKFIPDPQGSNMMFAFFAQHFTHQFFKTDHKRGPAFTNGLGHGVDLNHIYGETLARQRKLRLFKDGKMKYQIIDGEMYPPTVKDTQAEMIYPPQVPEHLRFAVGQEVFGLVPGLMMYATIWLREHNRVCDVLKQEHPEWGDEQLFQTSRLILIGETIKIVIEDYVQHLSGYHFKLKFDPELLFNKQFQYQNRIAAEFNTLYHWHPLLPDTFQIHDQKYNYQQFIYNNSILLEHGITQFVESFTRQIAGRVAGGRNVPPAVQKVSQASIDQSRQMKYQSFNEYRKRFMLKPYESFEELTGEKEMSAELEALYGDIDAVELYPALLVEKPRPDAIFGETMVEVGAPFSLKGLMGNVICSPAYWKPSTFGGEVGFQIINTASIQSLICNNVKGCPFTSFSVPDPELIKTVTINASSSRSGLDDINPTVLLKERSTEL
# Protocol: as §1
# [1] = Superoxide radical scavenging activity
# Protocol: The superoxide anion scavenging activity was measured as previously performed by […] et al., 2007 [57]. […] The reaction was initiated by adding 0.1 mL PMS solution (0.12 mM) to the mixture, incubated at 25 °C for 5 min., and the optical density was measured at 560 nm, compared to the reference ascorbic acid. The percentage inhibition was calculated using the following formula, Equation (2). (2) Superoxide scavenging activity=A control - A sample/A control×100 IC50 was calculated using Graph pad prism 7 software by performing the test at four different concentrations.
# [2] = Hydrogen peroxide scavenging activity
# Protocol: The residual H2O2 was determined colorimetrically. Briefly, 20 µL of the sample was added to 500 µL of H2O2 and incubated for 10 min., at 37 °C. […] The optical density of the colored product was measured at 510 nm using ascorbic acid as a positive control. The percentage of H2O2 scavenging activity was calculated by using the following formula (Equation (1)). (1) Scavenging activity=A control – A sample/A control×100 IC50 of each sample was determined at four different concentrations using Graph pad prism 7 software.
IC50 (COX-1),IC50 (COX-2),"COX-2/COX-1 (COX-2; selectivity index, ratio of IC50 values)",superoxide radical scavenging IC50 [1],H2O2 scavenging IC50 [2],Compound
> 100 µM,> 100 µM,–,–,–,"CCCCCCCCCCc1ccccc1O [Compound 6, 2-decylphenol]"
> 100 µM,> 100 µM,–,–,–,"CCCCCC/C=C\CCCCCCCC(=O)O [Compound 1, palmitoleic acid]"
> 100 µM,> 100 µM,–,–,–,"CCCCCCCC/C=C\CCCCCCCC(=O)O [Compound 3, oleic acid]"
18.5 ± 0.4 µM,2.41 ± 0.2 µM,0.13,–,–,"CCCCCCC=CCC=CCC=CCC=CCCCCC(=O)O [Compound 4, 6,9,12,15-docosatetraenoic acid]"
> 100 µM,> 100 µM,–,–,–,"CC(C)CCC[C@@H](C)[C@H]1CC[C@H]2[C@@H]3CC=C4C[C@@H](O)CC[C@]4(C)[C@H]3CC[C@]12C [Compound 5, cholesterol]"
–,–,–,164 µg/mL,174.2 µg/mL,O=C1O[C@H]([C@@H](O)CO)C(O)=C1O [ascorbic acid]
> 100 µM,> 100 µM,–,–,–,"CCCCCCCCCCCCCCCC(=O)O [Compound 2, palmitic acid]"
